{"source": "patent US8679526B2", "about": "“Antimicrobial peroxidase compositions” (Flen Pharma N.V., priority 2005, dated 2014)", "key": {"S. aureus": {"system": "S. aureus", "assay": "Antibacterial activity on S. aureus of oxidase/peroxidase with enhancing agents", "assay_type": "cell-based, Staphylococcus aureus", "conditions": "for antibacterial activity of compositions with enhancing agent, substrate and enzyme: FIG. 2; for enhancing activity on glucose/peroxidase antibacterial activity: present experimental setting; for Enhancing effect on oxidase/peroxidase assay: antimicrobial effect; for bactericidal capacity when mixed with the enzyme-substrate solution / effect on cell survival of the separate systems: FIG. 1; for bactericidal capacity when mixed with the enzyme-substrate solution: enhancing agent and ES; for effect on cell survival of the separate systems: enhancing agent only", "method": "Bacterial cells (S. aureus) were plated on Trypticase Soybean Agar plates (Becton Dickinson) and incubated overnight at 37° C. Cells were recovered from plates and mixed with NaCl-peptone broth buffer (Merck). The amount of medium is adjusted to give a bacterial suspension with a cell density of OD600=0.25 for bacteria.\nFor the examples described in the following examples, a fresh dilution of 0.25% (v/v) enzyme-substrate (Biovert™) stock solutions were prepared for each independent test. The Biovert™ enzyme stock solution contains 1527 U/ml lactoperoxidase; 2016 U/ml glucose oxidase; the Biovert™ substrate stock solution comprises: 55% (w/v) glucose, 0.51% (w/v) KSCN, 0.73% (w/v) KI.\nIn order to assess the synergistic action of the enhancing agent on the enzyme-substrate enhancing agent, the concentration of enzyme-substrate was adjusted to obtain conditions wherein the oxidase/peroxidase in a hydrogel performs limited but measurable antibacterial activity. The above mentioned (0.25% (v/v)) solution has accordingly been further diluted to 0.017% (v/v).\n(§1) A 0.33% (w/v) Na-alginaat (Kelset), 0.66% (v/v) PEG400 gel solution was prepared in water, autoclaved and subsequently cooled to room temperature.\n(§2) For the antibacterial assay the following components are mixed: 100 μl of bacterial cell suspension, 100 μl enzyme-substrate master solution (0.25%), 1 g (=1 ml) gel solution, 0.1-1 mg enhancing agent, 300 μl milliQ water. Final concentrations of the enzyme/substrate in the reaction mixture are 0.015 U/ml glucose oxidase, 0.011 U/ml lactoperoxidase, 0.00007% (w/v) potassium thiocyanate, 0.0001% (w/v) potassium iodide, 0.0076% glucose, and 0.066-0.66 mg/ml enhancing agent."}, "[1]": {"conditions": "cited from earlier work"}, "[2]": {"assay": "DPPH-radical bleaching assay", "conditions": "for Antioxidant properties: DPPH assay: 5 mMole/liter in 1-octanol; for potency as reducer / antioxidant efficiency: FIG. 4", "method": "DPPH (1,1-DiPhenyl-2-PicrylHydrazyl) is a cell-permeable, stable free radical that acts as a hydrogen radical scavenger, and is used as a screening tool for detecting free radical scavenging activity of antioxidants. When a radical solution is brought into contact with an antioxidant, the radical-molecule is reduced and thereby looses its characteristic purple colour. This “bleaching” can be monitored by spectrophotometric analysis.\nA DPPH-radical solution (15 mg/ml) was prepared freshly in 1-octanol (Sigma) and 900 μl aliquots were transferred to 2 ml spectrophotometer cuvettes. 100 μl of 50 mMole/liter solutions of enhancing agents (dissolved in 1-octanol) were added to the solution (final concentration of the enhancing agents is 5 mMole/liter). Spectrophotometric analysis of the samples was carried out within 5 minutes, in order to prevent quenching caused by free (e.g. air born) radicals."}, "Beta-carotene assay": {"assay": "Beta-carotene assay", "conditions": "for Antioxidant properties: Beta-carotene assay: 5 mMole/liter in 1-octanol; for antioxidant performance in the beta carotene bleaching assay: FIG. 3", "method": "In this assay, the antioxidant activity of a component is assessed by its ability to prevent bleaching of a beta-carotene solution by radicals formed upon illumination.\nA beta-carotene solution (20 mg/ml) was prepared freshly in 1-octanol (Sigma) and 900 μl aliquots were transferred to 2 ml spectrophotometer cuvettes. 100 μl of 50 mMole/liter solutions of enhancing agents of the invention (dissolved in 1-octanol) were added to the solution (final concentration of the enhancing agents is 5 mMole/liter). The solutions were illuminated for up to 5 hours and spectrophotometric analysis was carried out at indicated time points."}, "[3]": {"system": "MRSA (methicillin resistant S. aureus) bacteria", "assay": "Antibacterial activity on MRSA of oxidase/peroxidase with enhancing agents", "assay_type": "cell-based, Staphylococcus aureus", "conditions": "FIG. 5", "method": "The effect of vanillin and guaiacol on the peroxidase/oxidase activity was assayed on MRSA (methicillin resistant S. aureus) bacteria using growth conditions and assay conditions as described in example 1."}, "E. coli": {"system": "E. coli", "assay": "Antibacterial activity on E. coli of enhancing agents and oxidase/peroxidase", "assay_type": "cell-based, Escherichia coli", "conditions": "FIG. 7; 6 hours of incubation", "method": "Experiments using the conditions described in Example 1 and 2 were performed with Gram-negative bacteria (E. coli)."}, "Candida albicans": {"system": "Candida albicans", "assay": "Growth retardation of Candida albicans in SD broth with enzyme/substrate system", "assay_type": "cell-based", "conditions": "FIG. 9; 0.02% dilution of enzyme/substrate", "method": "A yeast cell culture (A600=0.05) was grown in Sabouraud Dextrose (SD) broth (Difco™, Becton Dickinson) in the presence of a 0.02% dilution (suboptimal concentration) of the enzyme/substrate system described in example 1."}, "[4]": {"assay": "Dispersion or dissolution in the hydrophilic gel setting", "assay_type": "physicochemical", "conditions": "present experimental setting, hydrogel", "method": "as §1, §2"}}}
{"molecule": "O=Cc1ccc(O)c(O)c1", "note": "[3,4 dihydroxybenzaldehyde, reference compound]", "values": [{"measurement": "antibacterial activity of compositions with enhancing agent, substrate and enzyme", "setting": "S. aureus", "result": "less pronounced"}]}
{"molecule": "N[C@@H](Cc1c[nH]c2ccc(O)cc12)C(=O)O", "note": "[5-hydroxy-tryptophane, reference compound]", "values": [{"measurement": "enhancing activity on glucose/peroxidase antibacterial activity", "setting": "S. aureus", "result": "did not show an enhancing activity"}]}
{"molecule": "COc1cc(C(C)=O)ccc1O", "note": "[Apocynin, 1-(4-hydroxy-3-methoxy-phenyl)ethanone]", "values": [{"measurement": "Solubility in water", "setting": "[1]", "result": 0.5, "unit": "g/L"}]}
{"molecule": "Cc1cc(C(C)(C)C)c(O)c(C(C)(C)C)c1", "note": "[BHT, di-tert-butylated hydroxytoluene, reference compound]", "values": [{"measurement": "Enhancing effect on oxidase/peroxidase assay", "setting": "S. aureus", "result": "+"}, {"measurement": "Antioxidant properties: DPPH assay", "setting": "[2]", "result": "++"}, {"measurement": "potency as reducer / antioxidant efficiency", "setting": "[2]", "result": "less potent reducers than gallic acid and propyl gallate"}, {"measurement": "Antioxidant properties: Beta-carotene assay", "setting": "Beta-carotene assay", "result": "+++"}]}
{"molecule": "CCOc1cc(C=O)ccc1O", "note": "[Ethylvanillin, 3-ethoxy-4-hydroxy-benzaldehyde]", "values": [{"measurement": "bactericidal capacity when mixed with the enzyme-substrate solution", "setting": "S. aureus", "result": "markedly enhanced the bactericidal capacity"}, {"measurement": "effect on cell survival of the separate systems", "setting": "S. aureus", "result": "only moderately affected cell survival"}, {"measurement": "Enhancing effect on oxidase/peroxidase assay", "setting": "S. aureus", "result": "+"}]}
{"molecule": "O=C(O)c1cc(O)c(O)c(O)c1", "note": "[Gallic acid, reference compound]", "values": [{"measurement": "antibacterial activity of compositions with enhancing agent, substrate and enzyme", "setting": "S. aureus", "result": "less pronounced"}, {"measurement": "Enhancing effect on oxidase/peroxidase assay", "setting": "S. aureus", "result": "+"}, {"measurement": "Antioxidant properties: DPPH assay", "setting": "[2]", "result": "+++"}, {"measurement": "Antioxidant properties: Beta-carotene assay", "setting": "Beta-carotene assay", "result": "+++"}]}
{"molecule": "CCOc1ccccc1O", "note": "[Guaiethol, 2-ethoxyphenol]", "values": [{"measurement": "Enhancing effect on oxidase/peroxidase assay", "setting": "S. aureus", "result": "+"}, {"measurement": "Antioxidant properties: DPPH assay", "setting": "[2]", "result": "+++"}, {"measurement": "potency as reducer / antioxidant efficiency", "setting": "[2]", "result": "nearly as efficient as gallic acid and propyl gallate"}, {"measurement": "Antioxidant properties: Beta-carotene assay", "setting": "Beta-carotene assay", "result": "++"}, {"measurement": "antioxidant performance in the beta carotene bleaching assay", "setting": "Beta-carotene assay", "result": "very effective"}, {"measurement": "Solubility in water", "setting": "[1]", "result": 3.1, "unit": "g/L"}]}
{"molecule": "COc1ccc(C=O)cc1O", "note": "[Isovanilline, 3-hydroxy-4-methoxy-benzaldehyde]", "values": [{"measurement": "antibacterial activity of compositions with enhancing agent, substrate and enzyme", "setting": "S. aureus", "result": "less pronounced"}, {"measurement": "Enhancing effect on oxidase/peroxidase assay", "setting": "S. aureus", "result": "−"}, {"measurement": "Antioxidant properties: DPPH assay", "setting": "[2]", "result": "−"}, {"measurement": "Antioxidant properties: Beta-carotene assay", "setting": "Beta-carotene assay", "result": "±"}, {"measurement": "Solubility in water", "setting": "[1]", "result": 11, "unit": "g/L"}]}
{"molecule": "COc1cc(O)ccc1O", "note": "[Methoxyhydroquinone, 2-methoxybenzene-1,4-diol]", "values": [{"measurement": "Solubility in water", "setting": "[1]", "result": 33, "unit": "g/L"}]}
{"molecule": "CCCOC(=O)c1cc(O)c(O)c(O)c1", "note": "[Propylgallate, propyl gallate, reference compound]", "values": [{"measurement": "antibacterial activity of compositions with enhancing agent, substrate and enzyme", "setting": "S. aureus", "result": "less pronounced"}, {"measurement": "Enhancing effect on oxidase/peroxidase assay", "setting": "S. aureus", "result": "±"}, {"measurement": "Antioxidant properties: DPPH assay", "setting": "[2]", "result": "+++"}, {"measurement": "Antioxidant properties: Beta-carotene assay", "setting": "Beta-carotene assay", "result": "+++"}]}
{"molecule": "CCOc1cc(C=O)ccc1O", "note": "[Quantrovanil, 3-ethoxy-4-hydroxy-benzaldehyde]", "values": [{"measurement": "Solubility in water", "setting": "[1]", "result": 0.28, "unit": "g/L"}]}
{"molecule": "COc1cc(C(=O)O)ccc1O", "note": "[Vanillic acid, 4-hydroxy-3-methoxy-benzoic acid]", "values": [{"measurement": "Enhancing effect on oxidase/peroxidase assay", "setting": "S. aureus", "result": "+"}, {"measurement": "Antioxidant properties: Beta-carotene assay", "setting": "Beta-carotene assay", "result": "±"}]}
{"molecule": "COc1cc(C=O)ccc1O", "note": "[Vanillin, 4-hydroxy-3-methoxy-benzaldehyde]", "values": [{"measurement": "bactericidal capacity when mixed with the enzyme-substrate solution", "setting": "S. aureus", "result": "markedly enhanced the bactericidal capacity"}, {"measurement": "effect on cell survival of the separate systems", "setting": "S. aureus", "result": "only moderately affected cell survival"}, {"measurement": "Enhancing effect on oxidase/peroxidase assay", "setting": "S. aureus", "result": "+"}, {"measurement": "enhancing effect on the peroxidase/oxidase activity", "setting": "[3]; ES + enhancing agent", "result": "enhancing effect"}, {"measurement": "antibacterial effect of compound alone", "setting": "[3]; enhancing agent alone", "result": "limited effect"}, {"measurement": "antibacterial effectiveness in combination with the enzyme-substrate", "setting": "E. coli", "result": "more effective than enzyme-substrate alone"}, {"measurement": "Antioxidant properties: DPPH assay", "setting": "[2]", "result": "−"}, {"measurement": "potency as reducer / antioxidant efficiency", "setting": "[2]", "result": "performed poorly"}, {"measurement": "Antioxidant properties: Beta-carotene assay", "setting": "Beta-carotene assay", "result": "−"}, {"measurement": "antioxidant performance in the beta carotene bleaching assay", "setting": "Beta-carotene assay", "result": "performed poorly"}, {"measurement": "suppression of fungal growth on addition to enzyme/substrate system", "setting": "Candida albicans", "result": "additional suppression of the fungal growth"}]}
{"molecule": "COc1cccc(O)c1", "note": "[m-Guaiacol, 3-methoxyphenol]", "values": [{"measurement": "Solubility in water", "setting": "[1]", "result": 0.5, "unit": "g/L"}]}
{"molecule": "COc1cccc(C=O)c1O", "note": "[o-vanillin, 2-hydroxy-3-methoxy-benzaldehyde]", "values": [{"measurement": "Solubility in water", "setting": "[1]", "result": 0.50, "unit": "g/L"}]}
{"molecule": "COc1cc(C=O)cc(OC)c1O", "note": "[syringaldehyde]", "values": [{"measurement": "dispersion or dissolution in hydrophilic media", "setting": "[4]", "result": "could not be properly dispersed or dissolved"}]}
{"molecule": "N[C@@H](Cc1ccc(O)cc1)C(=O)O", "note": "[tyrosine, reference compound]", "values": [{"measurement": "enhancing activity on glucose/peroxidase antibacterial activity", "setting": "S. aureus", "result": "did not show an enhancing activity"}]}
{"molecule": "Vitamin E [reference compound]", "values": [{"measurement": "Enhancing effect on oxidase/peroxidase assay", "setting": "S. aureus", "result": "−"}, {"measurement": "Antioxidant properties: DPPH assay", "setting": "[2]", "result": "+"}, {"measurement": "potency as reducer / antioxidant efficiency", "setting": "[2]", "result": "less potent reducers than gallic acid and propyl gallate"}, {"measurement": "Antioxidant properties: Beta-carotene assay", "setting": "Beta-carotene assay", "result": "+"}]}
